Results on six compounds are retold here after DBAASP.

Values after ≈ are worked out from the molar mass of the structure shown. Values joined by “and” are separate entries in the source; they are usually repeats but may differ in a detail not shown here. Equal values may be shown once.

Among the test systems are Candida albicans; Candida glabrata; Streptococcus agalactiae; Escherichia coli IS117#; Escherichia coli IS218#; Escherichia coli IS37#; Shigella dysenteriae; Candida krusei ATCC 6258; Streptococcus gordonii; Aspergillus nidulans; Escherichia coli; Staphylococcus aureus; Escherichia coli D31.
Assay in all cases: ≥ marks a high value that may be exact or a test limit, other limits are often not marked, values filed in µg/mL are converted to µM
Experiment [1] has as its system Escherichia coli ATCC 25922.
Experiment [2] has as its system Mycobacterium tuberculosis H37Rv.
Experiment [3] concerns Mycobacterium tuberculosis.
Experiment [4] concerns Pseudomonas aeruginosa ATCC 9027.
For experiment [5], the system named is Staphylococcus aureus ATCC 25923.
For experiment [6], the system named is Candida albicans ATCC 2002.
Experiment [7] concerns Candida albicans ATCC 90028.
For experiment [8], the system named is Candida parapsilosis ATCC 22019.
The test system of experiment [9] is Enterobacter cloacae ATCC 13047.
In experiment [10] the test system is Enterococcus faecalis ATCC 29212.
For experiment [11], the system named is Klebsiella pneumoniae ATCC 700603.
The test system of experiment [12] is Klebsiella pneumoniae IS59#.
In experiment [13] the test system is Pseudomonas aeruginosa ATCC 27853.
Experiment [14] relates to Pseudomonas aeruginosa CMCCB 1010.
Experiment [15] relates to Pseudomonas aeruginosa IS350#.
Experiment [16] deals with Staphylococcus aureus IS10#.
The subject of experiment [17] is Staphylococcus aureus IS37#.
For experiment [18], the system named is Candida glabrata ATCC 90030.
For experiment [19], the system named is Enterococcus faecalis ATCC 4028.
Experiment [20] relates to Staphylococcus aureus ATCC 29213.
The subject of experiment [21] is Staphylococcus aureus ATCC 33591.
The subject of experiment [22] is Staphylococcus aureus S015.
Experiment [23] has as its system Staphylococcus epidermidis ATCC 12228.
Experiment [24] has as its system Bacillus subtilis ATCC 11774.
Experiment [25] relates to Enterococcus faecalis FA2-2.
For experiment [26], the system named is Enterococcus faecalis OG1X.
Experiment [27] deals with Escherichia coli ATCC 12014.
Experiment [28] deals with Porphyromonas gingivalis ATCC 33277.
In experiment [29] the test system is Pseudomonas aeruginosa ATCC 10145.
For experiment [30], the system named is Salmonella enterica subsp. enterica serovar Typhimurium ATCC BAA-215.
Experiment [31] has as its system Staphylococcus aureus ATCC 6538.
Experiment [32] deals with Micrococcus luteus DSM 20030.

Consider `CC[C@H](C)[C@H](NC(=O)[C@H](CCCCN)NC(=O)[C@H](CCCCN)NC(=O)[C@@H](NC(=O)[C@H](C)NC(=O)[C@H](CO)NC(=O)[C@@H](NC(=O)[C@H](C)NC(=O)[C@H](CO)NC(=O)[C@@H]1CCCN1C(=O)[C@@H](NC(=O)[C@H](CC(C)C)NC(=O)[C@H](CO)NC(=O)[C@H](CC(C)C)NC(=O)[C@H](CC(C)C)NC(=O)[C@H](Cc1ccccc1)NC(=O)[C@H](Cc1ccccc1)NC(=O)[C@@H]1CCCN1C(=O)[C@@H](N)CC(C)C)[C@@H](C)CC)[C@@H](C)CC)[C@@H](C)CC)C(N)=O` [LPFFLLSLIPSAISAIKKI], for which the minimum inhibitory concentration (MIC) with Candida albicans was 6.25 µM (≈ 12.9 µg/mL); against Candida glabrata, no less than 50 µM; in [1] it was 24 µM (≈ 49.7 µg/mL); in experiment [2], 17.4 µM (≈ 36 µg/mL); in [3], 4.8 µM (≈ 9.94 µg/mL); in experiment [4], 2.5 µM (≈ 5.18 µg/mL). Also, the minimal inhibitory concentration (MIC) (in experiment [5]; in the experiment on Streptococcus agalactiae) was 2.5 µM (≈ 5.18 µg/mL) each time.

On to `CC[C@H](C)[C@H](NC(=O)CNC(=O)[C@H](CO)NC(=O)[C@H](CC(C)C)NC(=O)[C@H](CC(C)C)NC(=O)CN)C(=O)N[C@@H](CC(C)C)C(=O)NCC(=O)N[C@@H](C)C(=O)NCC(=O)N[C@@H](CCCCN)C(=O)N[C@@H](CCCN=C(N)N)C(=O)N[C@H](C(=O)N[C@H](C(=O)N[C@H]1CSSC[C@@H](C(=O)O)NC(=O)[C@H](CC(C)C)NC(=O)CNC(=O)[C@H](CO)NC(=O)[C@H](CC(C)C)NC(=O)CNC1=O)C(C)C)[C@@H](C)CC` [GLLSGILGAGKRIVCGLSGLC], for which the MIC in experiment [6] was 1.01 µM (≈ 2 µg/mL); in experiment [7] it was 1.26 µM (≈ 2.5 µg/mL); in [8], 2.52 µM (≈ 5 µg/mL); in [9] it was 2.52 µM (≈ 5 µg/mL); in [10], 5.03 µM (≈ 9.99 µg/mL); in experiment [1], 2.52 µM (≈ 5 µg/mL). The MIC against Escherichia coli IS117# came out at 5.03 µM (≈ 9.99 µg/mL); against Escherichia coli IS218# it was 10.1 µM (≈ 20 µg/mL); in the experiment with Escherichia coli IS37#, 5.03 µM (≈ 9.99 µg/mL); in experiment [11] it was 0.503 µM (≈ 0.999 µg/mL); in experiment [12] it was 10.1 µM (≈ 20 µg/mL); in experiment [13], 5.03 µM (≈ 9.99 µg/mL). Moreover, the MIC is 0.503 µM (≈ 0.999 µg/mL) in [14]; 10.1 µM (≈ 20 µg/mL) in experiment [15]; 5.03 µM (≈ 9.99 µg/mL) in the experiment with Shigella dysenteriae; 5.03 µM (≈ 9.99 µg/mL) in experiment [5]; 2.52 µM (≈ 5 µg/mL) in experiment [16]; 5.03 µM (≈ 9.99 µg/mL) in [17].

`CC[C@H](C)[C@H](NC(=O)[C@H](CC(C)C)NC(=O)CNC(=O)CNC(=O)[C@@H](NC(=O)[C@H](CC(C)C)NC(=O)[C@H](CO)NC(=O)[C@@H]1CCCN1C(=O)[C@@H](NC(=O)[C@H](CC(C)C)NC(=O)[C@H](CO)NC(=O)[C@H](Cc1ccccc1)NC(=O)[C@@H](N)Cc1ccccc1)[C@@H](C)CC)C(C)C)C(=O)N[C@@H](CO)C(=O)N[C@@H](C)C(=O)N[C@@H](Cc1ccccc1)C(=O)N[C@@H](CCCCN)C(N)=O` [FFSLIPSLVGGLISAFK]: the minimal inhibitory concentration (MIC) in [7] was no less than 34.8 µM; in experiment [18] it was no less than 69.5 µM; in the experiment with Candida krusei ATCC 6258, no less than 69.5 µM; in experiment [9], no less than 150 µM; in experiment [10], greater than 139 µM; in experiment [19], no less than 150 µM. The MIC in experiment [1] was greater than 139 µM; in experiment [13], greater than 150 µM; in [20], 8.68 µM and 9.37 µM; in experiment [21] it was 17.4 µM (≈ 31.2 µg/mL); in experiment [22] it was no less than 139 µM; in [23], 9.38 µM and 9.37 µM.

With `CC[C@H](C)[C@H](NC(=O)[C@H](CCCCN)NC(=O)[C@H](CCC(=O)O)NC(=O)[C@H](CCCCN)NC(=O)[C@H](CO)NC(=O)[C@H](CCCCN)NC(=O)[C@@H](N)CCCN=C(N)N)C(=O)NCC(=O)N[C@@H](CCCCN)C(=O)N[C@@H](CCC(=O)O)C(=O)N[C@@H](Cc1ccccc1)C(=O)N[C@@H](CCCCN)C(=O)N[C@@H](CCCN=C(N)N)C(=O)N[C@H](C(=O)N[C@H](C(=O)N[C@@H](CCC(N)=O)C(=O)N[C@@H](CCCN=C(N)N)C(=O)N[C@H](C(=O)N[C@@H](CCCCN)C(=O)N[C@@H](CC(=O)O)C(=O)N[C@@H](Cc1ccccc1)C(=O)O)[C@@H](C)CC)C(C)C)[C@@H](C)CC` [RKSKEKIGKEFKRIVQRIKDF], the MIC is 0.038 µM (≈ 0.1 µg/mL) in experiment [24]; 4.75 µM (≈ 12.5 µg/mL) in experiment [25]; 19 µM (≈ 50 µg/mL) in experiment [26]; 0.152 µM (≈ 0.4 µg/mL) in experiment [27]; 4.75 µM (≈ 12.5 µg/mL) in experiment [28]; no less than 38 µM in [29]. Moreover, the MIC is 19 µM (≈ 50 µg/mL) in experiment [30], 19 µM (≈ 50 µg/mL) in [31] and 2.37 µM (≈ 6.25 µg/mL) against Streptococcus gordonii.

Regarding `CC[C@H](C)[C@H](NC(=O)[C@H](CO)NC(=O)[C@@H]1CCCN1C(=O)[C@H](CCCN=C(N)N)NC(=O)[C@H](Cc1c[nH]c2ccccc12)NC(=O)[C@H](Cc1c[nH]c2ccccc12)NC(=O)[C@H](Cc1ccc(O)cc1)NC(=O)[C@H](CCC(N)=O)NC(=O)[C@H](CCCCN)NC(=O)[C@H](CC(C)C)NC(=O)[C@@H]1CCCN1C(=O)[C@@H](N)Cc1cnc[nH]1)C(=O)O` [HPLKQYWWRPSI], the MIC with Aspergillus nidulans is 21.9 µM (≈ 35.4 µg/mL); against Candida albicans, 11 µM (≈ 17.7 µg/mL); in the experiment on Escherichia coli it was greater than 125 µM; in the experiment with Staphylococcus aureus, greater than 125 µM.

Consider `CC[C@H](C)[C@H](NC(=O)[C@H](Cc1c[nH]c2ccccc12)NC(=O)[C@@H](N)CO)C(=O)N[C@@H](CCCCN)C(=O)N[C@@H](CCCCN)C(=O)N[C@@H](CC(=O)O)C(=O)N[C@@H](CCCCN)C(=O)N[C@@H](Cc1ccccc1)C(=O)N1CCC[C@H]1C(=O)N[C@@H](CO)C(=O)N[C@@H](CO)C(=O)N[C@H](C(=O)NCC(=O)N1CCC[C@H]1C(=O)N[C@@H](Cc1ccc(O)cc1)C(=O)N[C@@H](CC(N)=O)C(=O)N1CCC[C@H]1C(=O)N[C@@H](CC(N)=O)C(=O)N1CCC[C@H]1C(=O)N1CCC[C@H]1C(=O)N1CCC[C@H]1C(=O)N1CCC[C@H]1C(=O)N[C@@H](CCCN=C(N)N)C(=O)N[C@@H](Cc1ccccc1)C(=O)O)[C@@H](C)O` [SWIKKDKFPSSTGPYNPNPPPPRF], for which the minimum inhibitory concentration (MIC) (with Escherichia coli D31; in [32]) was no less than 100 µM throughout.
